One assay deals with human recombinant PDE V (Homo sapiens, UniProt O76074). The assay is described as follows: Inhibitory effect on cGMP-PDE (one-step assay, human recombinant PDE V). In kind it is biochemical. The following applies: 0.15 μM 8-[H^3]-cGMP, 2% DMSO, 30 minutes. Here is the method:
cGMP-PDE activity of compounds of the present invention was measured using a one-step assay adapted from Wells at al. (Wells, J. N., Baird, C. E., Wu, Y. J. and Hardman, J. G., Biochim. Biophys. Acta 384, 430 (1975)). The reaction medium contained 50 mM Tris-HCl,pH 7.5, 5 mM Mg-acetate, 250 μg/ml 5'-Nucleotidase, 1 mM EGTA and 0.15 μM 8-[H^3 ]-cGMP. The enzyme used was a human recombinant PDE V (ICOS, Seattle USA).
Compounds of the invention were dissolved in DMSO finally present at 2% in the assay.

Assay [1] has as its system Rat aortic smooth muscle cells (RSMC). The assay can be described thus: cGMP level measurements in rat aortic smooth muscle cells (RSMC). In kind it is cell-based. The following applies: 10 min, cGMP after ANF (100 nM) stimulation for 10 minutes, dose giving half of the stimulation at saturating concentrations. The method, then:
Rat aortic smooth muscle cells (RSMC) prepared according to Chamley et al. in Cell Tissue Res. 177, 503-522 (1977) were used between the 10th and 25th passage at confluence in 24-well culture dishes. Culture media was aspirated and replaced with PBS (0.5 ml) containing the compound tested at the appropriate concentration. After 30 minutes at 37° C., particulates guanylate cyclase was stimulated by addition of ANF (100 nM) for 10 minutes. At the end of incubation, the medium was withdrawn and two extractions were performed by addition of 65% ethanol (0.25 ml). The two ethanolic extracts were pooled and evaporated until dryness, using a Speed-vac system. c-GMP was measured after acetylation by scintillation proximity immunoassay ([…]). The EC50 values are expressed as the dose giving half of the stimulation at saturating concentrations

The test system of assay [2] is conscious spontaneously hypertensive rats (SHRs). The assay is described as follows: Hypotensive effects in conscious spontaneously hypertensive rats. Type of assay: in vivo, rat. The conditions noted are these: AUC from 0 to 5 hours. Here is the method:
The hypotensive effects of compounds according to the invention as identified in Table 2 were studied in conscious spontaneously hypertensive rats (SHRs). The compounds were administered orally at a dose of 5 or 10 mg/kg in a mixture of 5% DMF and 95% olive oil, or i.v. at a dose of 10 mg/kg in a mixture of 40% dimethylformamide, 25% tetraglycol, and […]. Blood pressure was measured from a catheter inserted in the carotid artery and recorded for 5 hours after administration. The results are expressed as Area Under the Curve (AUC from 0 to 5 hours, mmHg.hour) of the fall in blood pressure over time.

The values below come from US6218400A, “Treatment method using a cGMP-Specific PDE inhibitor” (ICOS Corporation, priority 1995, dated 2001).

Turning to `COc1ccc([C@H]2c3[nH]c4ccccc4c3C[C@@H]3C(=O)N(C4CCCCC4)C(=O)N23)cc1` (relative stereo) [26 (cis isomer), Cis-2-cyclohexyl-5-(4-methoxyphenyl)-5,6,11,11a-tetrahydro-1H-imidazo [1',5':1,6] pyrido[3,4-b]indole-1,3(2H)-dione], on human recombinant PDE V, the 50% inhibitory concentration (IC50) (commonly the concentration that gives 50% inhibition) turned out to be 7 nM. Moreover, it took 300 nM to reach a half-maximal effect in assay [1] (EC50). Also, the “AUC of the fall in blood pressure over time” value (“AUC of the fall … over time” for short) in assay [2] (dosed at 10 mg/kg i.v.) came to 117 mmHg·h.
As to `O=C1[C@H]2Cc3c([nH]c4ccccc34)[C@H](c3ccc4c(c3)OCO4)N2C(=O)N1Cc1ccccc1` (relative stereo) [1 (cis isomer), Cis-2-benzyl-5-(3,4-methylenedioxyphenyl)-5,6,11,11a-tetrahydro-1H-imidazo [1',5':1,6]pyrido[3,4-b]indole-1,3(2H)-dione], on human recombinant PDE V, the IC50 was < 10 nM. Besides, in assay [1], it took 300 nM to reach a half-maximal effect (EC50). Further, the “AUC of the fall … over time” value in assay [2] (dosed at 5 mg/kg p.o.) is given as 104 mmHg·h.
Turning to `CCCCN1C(=O)[C@@H]2Cc3c([nH]c4ccccc34)[C@H](c3ccc(OC)cc3)N2C1=O` (relative stereo) [Example 10, Trans-2-butyl-5-(4-methoxyphenyl)-5,6,11,11a-tetrahydro-1H-imidazo [1',5':1,6] pyrido[3,4-b]indole-1,3(2H)-dione], in assay [1], the EC50 (commonly the midpoint of the concentration-response curve) was < 1000 nM. For the same compound, in assay [2] (dosed at 10 mg/kg i.v.), the “AUC of the fall … over time” value is 147 mmHg·h.
For the compound `O=C1[C@H]2Cc3c([nH]c4ccccc34)[C@@H](c3ccc4c(c3)OCO4)N2C(=O)N1Cc1ccccc1` [Example 32, (5R,11aR)-2-benzyl-5-(3,4-methylenedioxyphenyl)-5,6,11,11a-tetrahydro-1H-imidazo [1',5':1,6]pyrido[3,4-b]indole-1,3(2H)-dione], the IC50 on human recombinant PDE V was < 10 nM. In assay [1], the midpoint of the response, the EC50, lay at 200 nM. Further, the “AUC of the fall … over time” value in assay [2] (dosed at 5 mg/kg p.o.) is reported as 65 mmHg·h.
